Assay: Single oral dose pharmacokinetics of curcumin in plasma and mesenteric lymph
Assay type: in vivo, Sprague-Dawley rats
Details: Sprague-Dawley, rat, plasma, 75 mg/kg
Description: Prior to treatment, the rats were anaesthetized followed by a surgical intervention to cannulate the mesenteric mesenteric lymph duct (for lymph collection) and the carotid artery (for blood collection). The cannulas were externalized and the rats were allowed to recover for 24 hours. Thereafter, either the curcumin suspension or the SLCP dosage form was administered via gavage. Blood (0.25 ml) was sampled prior to and 0.5, 1.0, 2.0, 3.0 and 5.0 hours after administration into vials coated with EDTA. Blood samples were centrifuged to obtain plasma and stored at <−30° C. until analysis. Mesenteric lymph (0.25 ml) was collected prior to and 1 and 5 hours after administration into vials coated with EDTA and stored at <−30° C. until analysis.
Analysis of curcumin and glucuronated curcumin was performed by HPLC with UV-detection coupled to MS according to published methods. […] The Limit of Determination was set to 2.5 ng/ml biological fluid.

AUC(0-t): 562 ng·h/mL | Cmax: 190 ng/mL
SMILES: COc1cc(/C=C/C(=O)CC(=O)/C=C/c2ccc(O)c(OC)c2)ccc1O [Standard, Curcumin]
